Laboratory results published in PMC4139024, “Synthesis and In Vitro Inhibition Effect of New Pyrido[2,3-d]pyrimidine Derivatives on Erythrocyte Carbonic Anhydrase I and II” (BioMed Research International, 2014).

Experiments:
[1] = biological target: T1, human carbonic anhydrase I (hCA I) (Homo sapiens, UniProt P00915); assay: hCA I inhibition assay (Maren method, CO2 hydration); format: biochemical; conditions: purified human erythrocyte hCA I, CO2 as substrate
T1 construct: from tissue
Description: (§1) Blood samples (25 mL) were taken from healthy human volunteers. They were anticoagulated with acid-citrate-dextrose and centrifuged at 2000 g for 20 min at 4°C and the supernatant was removed. The packed erythrocytes were washed three times with 0.9% NaCl and then haemolysed in cold water. The ghosts and any intact cells were removed by centrifugation at 2000 g for 25 min at 4°C, and the pH of the haemolysate was adjusted to pH 8.5 with solid Tris-base. The 25 mL haemolysate was applied to an affinity column containing L-tyrosine-sulfonamide-sepharose-4B [21] equilibrated with 25 mM Tris-HCl/0.1 M Na2SO4 (pH 8.5). The affinity gel was washed with 50 mL of 25 mM Tris-HCl/22 mM Na2SO4 (pH 8.5). The hCA isozymes were then eluted with 0.1 M NaCl/25 mM Na2HPO4 (pH 6.3) and 0.1 M CH3COONa/0.5 M NaClO4 (pH 5.6), which recovered hCA I and hCA II, respectively. Fractions of 3 mL were collected and their absorbance was measured at 280 nm.
(§2) CA activity was measured by the Maren method which is based on determination of the time required for the pH to decrease from 10.0 to 7.4 due to CO2 hydration. The assay solution was 0.5 M Na2CO3/0.1 M NaHCO3 (pH 10.0) and Phenol Red was added as the pH indicator. CO2-hydratase activity (enzyme units (EU)) was calculated by using the equation t 0 − t c/t c, where t 0 and t c are the times for pH change of the nonenzymatic and the enzymatic reactions, respectively.
(§3) For the inhibition studies of indolylchalcone and pyrido[2,3-d]pyrimidine derivatives, different concentrations of these compounds were added to the enzyme. Activity percentage values of CA for different concentrations of each pyrimidine derivatives were determined by regression analysis using Microsoft Office 2000 Excel. CA enzyme activity without these compounds was accepted as 100% activity.

[2] = biological target: T2, human carbonic anhydrase II (hCA II) (Homo sapiens, UniProt P00918); assay: hCA II inhibition assay (Maren method, CO2 hydration); format: biochemical; conditions: purified human erythrocyte hCA II, CO2 as substrate
T2 construct: from tissue
Description: as §1, §2, §3

T1 sequence (P00915 whole entry): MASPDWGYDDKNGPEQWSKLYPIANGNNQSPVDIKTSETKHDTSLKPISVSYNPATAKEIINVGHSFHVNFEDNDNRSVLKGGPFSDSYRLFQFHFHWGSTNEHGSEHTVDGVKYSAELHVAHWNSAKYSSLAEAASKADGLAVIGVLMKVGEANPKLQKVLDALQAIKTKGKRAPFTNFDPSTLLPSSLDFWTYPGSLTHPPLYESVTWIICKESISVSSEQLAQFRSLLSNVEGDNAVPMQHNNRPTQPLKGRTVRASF

| Structure (SMILES) | IC50 [1] [µM] | IC50 [2] [µM] | melting point [°C] |
| --- | --- | --- | --- |
| COc1ccc(C(=O)/C=C/c2cn(C)c3ccccc23)cc1OC [Compound 5a, (E)-1-(3,4-Dimethoxyphenyl)-3-(1-methyl-1H-indol-3-yl) prop-2-en-1-one] | 8.34 | 8.88 | 271 |
| COc1ccc(C(=O)/C=C/c2cn(C)c3ccccc23)cc1 [Compound 5b, (E)-1-(4-Methoxyphenyl)-3-(1-methyl-1H-indol-3-yl) prop-2-en-1-one] | 7.42 | 10.3 | 254 |
| Cc1ccc(C(=O)/C=C/c2cn(C)c3ccccc23)cc1 [Compound 5c, (E)-3-(1-Methyl-1H-indol-3-yl)-1-p-tolylprop-2-en-1-One] | 13.1 | 12.3 | 240 |
| Cn1cc(/C=C/C(=O)c2ccc(Cl)cc2)c2ccccc21 [Compound 5d, (E)-1-(4-Chlorophenyl)-3-(1-methyl-1H-indol-3-yl)prop-2-en-1-one] | 8.2 | 8.26 | 248 |
| Cn1cc(/C=C/C(=O)c2ccccc2)c2ccccc21 [Compound 5e, (E)-3-(1-Methyl-1H-indol-3-yl)-1-phenylprop-2-en-1-one] | 12.8 | 9.15 | – |
| Cn1cc(/C=C/C(=O)c2ccc([N+](=O)[O-])cc2)c2ccccc21 [Compound 5f, (E)-3-(1-Methyl-1H-indol-3-yl)-1-(4-nitrophenyl)prop-2-en-1-one] | 10.9 | 9.31 | 278 |
| Cn1cc(/C=C/C(=O)c2cccc([N+](=O)[O-])c2)c2ccccc21 [Compound 5g, (E)-3-(1-Methyl-1H-indol-3-yl)-1-(3-nitrophenyl)prop-2-en-1-one] | 8.38 | 7.22 | 267 |
| COc1ccc(-c2cc(-c3cn(C)c4ccccc34)c3c(=O)[nH]c(=O)n(C)c3n2)cc1OC [Compound 7a, 7-(3,4-Dimethoxyphenyl)-1-methyl-5-(1-methyl-1H-indol-3-yl)pyrido[2,3-d]pyrimidine-2,4(1H,3H)-dione] | 16.3 | 19.4 | 333 to 334 |
| Cc1ccc(-c2cc(-c3cn(C)c4ccccc34)c3c(=O)[nH]c(=O)n(C)c3n2)cc1 [Compound 7b, 1-Methyl-5-(1-methyl-1H-indol-3-yl)-7-p-tolylpyrido[2,3-d]pyrimidine-2,4(1H,3H)-dione] | 11.6 | 12.1 | 399 to 400 |
| Cn1cc(-c2cc(-c3ccc(Cl)cc3)nc3c2c(=O)[nH]c(=O)n3C)c2ccccc21 [Compound 7c, 7-(4-Chlorophenyl)-1-methyl-5-(1-methyl-1H-indol-3-yl)pyrido[2,3-d]pyrimidine-2,4(1H,3H)-dione] | 21.1 | 31.1 | 385 to 389 |
| Cn1cc(-c2cc(-c3cccc([N+](=O)[O-])c3)nc3c2c(=O)[nH]c(=O)n3C)c2ccccc21 [Compound 7d, 1-Methyl-5-(1-methyl-1H-indol-3-yl)-7-(3-nitrophenyl)pyrido[2,3-d]pyrimidine-2,4(1H,3H)-dione] | 12.1 | 13.7 | 397 |
| COc1ccc(-c2cc(-c3cn(C)c4ccccc34)c3c(=O)n(C)c(=O)n(C)c3n2)cc1OC [Compound 7e, 7-(3,4-Dimethoxyphenyl)-1,3-dimethyl-5-(1-methyl-1H-indol-3-yl)pyrido[2,3-d]pyrimidine-2,4(1H,3H)-dione] | 6.79 | 8.06 | 340 to 341 |
| COc1ccc(-c2cc(-c3cn(C)c4ccccc34)c3c(=O)n(C)c(=O)n(C)c3n2)cc1 [Compound 7f, 7-(4-Methoxyphenyl)-1,3-dimethyl-5-(1-methyl-1H-indol-3-yl)pyrido[2,3-d]pyrimidine-2,4(1H,3H)-dione] | 26.2 | 25.4 | 335.7 to 336 |
| Cc1ccc(-c2cc(-c3cn(C)c4ccccc34)c3c(=O)n(C)c(=O)n(C)c3n2)cc1 [Compound 7g, 1,3-Dimethyl-5-(1-methyl-1H-indol-3-yl)-7-p-tolylpyrido[2,3-d]pyrimidine-2,4(1H,3H)-dione] | 7.61 | 7.57 | 340 to 341 |
| Cn1c(=O)c2c(-c3cn(C)c4ccccc34)cc(-c3ccc(Cl)cc3)nc2n(C)c1=O [Compound 7h, 7-(4-Chlorophenyl)-1,3-dimethyl-5-(1-methyl-1H-indol-3-yl)pyrido[2,3-d]pyrimidine 2,4(1H,3H)-dione] | 12.4 | 24.7 | 358 to 359 |
| Cn1c(=O)c2c(-c3cn(C)c4ccccc34)cc(-c3ccccc3)nc2n(C)c1=O [Compound 7i, 1,3-Dimethyl-5-(1-methyl-1H-indol-3-yl)-7-phenylpyrido[2,3-d]pyrimidine-2,4(1H,3H)-dione] | 8.72 | 8.14 | 320 |
| Cn1c(=O)c2c(-c3cn(C)c4ccccc34)cc(-c3ccc([N+](=O)[O-])cc3)nc2n(C)c1=O [Compound 7j, 1,3-Dimethyl-5-(1-methyl-1H-indol-3-yl)-7-(4-nitrophenyl)pyrido[2,3-d]pyrimidine-2,4(1H,3H)-dione] | 10.2 | 9.56 | 347 to 349 |
| Cn1c(=O)c2c(-c3cn(C)c4ccccc34)cc(-c3cccc([N+](=O)[O-])c3)nc2n(C)c1=O [Compound 7k, 1,3-Dimethyl-5-(1-methyl-1H-indol-3-yl)-7-(3-nitrophenyl)pyrido[2,3-d]pyrimidine-2,4(1H,3H)-dione] | 22.3 | 26.7 | 349 to 350 |
